These are literature values, as cited in article PMC2785207 (The Journal of Biological Chemistry, 2009).

For one data set, the system named is CobB. The following applies: E. coli sirtuin CobB; ref [17], [18].
A further data set concerns Sir2. Particulars: reaction product; reacts with the O-alkylamidate to regenerate NAD+ and acetyl lysine; ref [14], [15].

`Cc1cc2nc[nH]c2cc1C` [5,6-dimethylbenzimidazole]: in the data set on CobB, the “ribosylation by CobB” value was “ribosylates”.

For the molecule `NC(=O)c1cccnc1` [nicotinamide], the “inhibition of the Sir2 deacetylation reaction” value in the data set with Sir2 was “inhibited”.
